Here are results for 13 compounds from patent publication US20240270748A1 (Merck Patent GmbH, priority 2021, published 2024).

For orientation: melting point means the temperature, or range, at which the solid turns liquid. One may read the IC50 as the concentration that gives 50% inhibition.

Data set [1] has as its system NCI-H226 human mesothelioma tumor cells. Briefly: NCI-H226 in vivo efficacy study. The following applies: H2d Rag2 female mice, subcutaneous NCI-H226 tumors, po qd for 29 days. The method, then: NCI-H226 In Vivo Efficacy Study
7-9-week-old H2d Rag2 female mice (own breeding, Taconic-Denmark) were inoculated subcutaneously with 5×10^6 NCI-H226 human mesothelioma tumor cells in the right flank. Tumor growth and body weight was measured twice weekly using caliper. Tumor volume was calculated using the formula TV=L×W×W/2.
When tumor volume reached approximately 75-150 mm^3, animals were randomized (Day 0) into treatment groups (n=9-10/group) and treated perorally (po) once daily (qd) for 29 days with either vehicle (20% hydroxypropyl β-cyclodextrin in 50 mM PBS pH 7.4) or Compound no. 2. Compound no. 2 was tested at dosing levels of 1, 3, 10, 30, and 100 mg/kg, respectively. Results are depicted in FIG. 1 (tumor growth over time for vehicle group and each dosage group) and FIG. 2 (final tumor volume of vehicle group and each dosage group).
Statistical analysis of tumor volumes between treatment groups was done using repeated measures analysis of covariance (RM-ANCOVA) in a linear mixed effects model followed by least-squares means pairwise comparisons.
The animal experiment was performed under regulation of the German animal welfare act and in accordance with the EU laboratory animal directive for the area of animal experiments.

The next data set deals with YAP-TEAD interaction. Briefly: SK-HEP-1 reporter assay (8xTEAD responsive elements driving NanoLuc luciferase). The following applies: Homo sapiens, SK-HEP1, SK-HEP-1 reporter assay; class symbols. Format: cell-based. In short, it runs like this: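 SK-HEP-1 cells stably carrying 8×TEAD-driven NanoLuc treated in duplicate, 10-point dose from 30 μM final, 0.3% DMSO, 24 h at 37° C. Luminescence after NanoGlo lysis/substrate addition; IC50 calculated from dose response.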

The subject of the next data set is SW620 Yap KO cells. Briefly: Viability assay in SW620 Yap KO (Yap independent) cells, CyQuant. Format: cell-based. The following applies: Homo sapiens, SW-620, 96 h. In short, it runs like this: (§1)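 Seeded cells were dosed 24 h later in duplicate (10-point, 1:3 dilutions, top 30 μM final, 0.3% DMSO) and incubated 96 h at 37 °C. Viability was read with CyQUANT DNA dye after 1 h, fluorescence bottom read. NCI-H226 in RPMI 1640 medium; SW620 YAP/TAZ CRISPR knockout in DMEM/F-12 medium.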

The next data set deals with NCI-H226 cells. The data set can be described thus: Viability assay in NCI-H226 (Yap-dependent) cells, CyQuant. Format: cell-based, human. The following applies: Homo sapiens, class symbols. In short, it runs like this: as §1

With `Cn1cc2c3cc(C(=O)O)ccc3n(-c3ccc(C(F)(F)F)cc3)c2n1` [Example 2, 2-methyl-8-[4-(trifluoromethyl)phenyl]-2H,8H-pyrazolo[3,4-b]indole-5-carboxylic acid], the “dosing levels showing maximal inhibition of tumor growth” value in data set [1] is > 10 mg/kg. For the same compound, in data set [1] (all tested dosing levels 1, 3, 10, 30, 100 mg/kg, p-value <0.001), the “tumor growth inhibition compared to vehicle treated group” value is “Significant tumor growth inhibition”.
`CCOc1ccc(-n2c3ccc(C(=O)O)cc3c3cn(C)nc32)cc1` [Example 15, 8-(4-Ethoxyphenyl)-2-methyl-2H,8H-pyrazolo[3,4-b]indole-5-carboxylic acid] had a melting point of 179 to 181 °C.
For `COC(=O)c1ccc2c(c1)c1nn(C)cc1n2-c1ccc(C(F)(F)F)cc1` [Example 16, Methyl 2-methyl-4-[4-(trifluoromethyl)phenyl]pyrazolo[4,3-b]indole-7-carboxylate], the melting point was in the range of 111 to 112 °C.
With `Cn1cc2c(n1)c1cc(C#N)ccc1n2-c1ccc(C(F)(F)F)cc1` [Example 19, 2-methyl-4-[4-(trifluoromethyl)phenyl]pyrazolo [4,3-b]indole-7-carbonitrile], the melting point was in the range of 208 to 210 °C.
In the case of `C=CC(=O)Nc1ccc2c(c1)c1cn(C)nc1n2-c1ccc(C(F)(F)F)cc1` [Example 20, N-[2-methyl-8-[4-(trifluoromethyl)phenyl]pyrazolo[3,4-b]indol-5-yl]prop-2-enamide], the melting point was in the range of 223 to 224 °C.
`C=CC(=O)NCc1ccc2c(c1)c1cn(C)nc1n2-c1ccc(C(F)(F)F)cc1` [Example 21, N-([2-methyl-8-[4-(trifluoromethyl)phenyl]pyrazolo [3,4-b]indol-5-yl]methyl)prop-2-enamide] displayed a melting point of 185 to 187 °C.
As to `Cn1cc2c3cc(CNC(=O)CCl)ccc3n(-c3ccc(C(F)(F)F)cc3)c2n1` [Example 24, 2-chloro-N-([2-methyl-8-[4-(trifluoromethyl)phenyl]pyrazolo[3,4-b]indol-5-yl]methyl)acetamide], the melting point was in the range of 221 to 222 °C. Besides, in the data set with YAP-TEAD interaction, the IC50 was 100 to 10000 nM. This compound also yielded an IC50 in the data set on SW620 Yap KO cells (class symbols) of 1 to 10 µM. This compound also came in with a half-inhibitory concentration (IC50) in the data set with NCI-H226 cells (96 h) of 100 to 1000 nM.
Consider `Cc1nc2c(s1)c1cc(C(=O)O)ccc1n2-c1ccc(C(F)(F)F)cc1` [Example 25, 2-methyl-4-[4-(trifluoromethyl)phenyl]-[1,3]thiazolo[4,5-b]indole-7-carboxylic acid], for which the melting point was in the range of 169 to 171 °C.
Consider `Cn1cc2c3cc(C(=O)NC4CC4)ccc3n(-c3ccc(C(F)(F)F)nc3)c2n1` [Example 27, N-cyclopropyl-2-methyl-8-[6-(trifluoromethyl)pyridin-3-yl]-2H,8H-pyrazolo[3,4-b]indole-5-carboxamide], for which the melting point came to 300 °C.
In the case of `Cn1cc2c3cc(C(=O)NCc4ccncc4)ccc3n(-c3ccc(C(F)(F)F)cc3)c2n1` [Example 28, 2-methyl-N-[(pyridin-4-yl)methyl]-8-[4-(trifluoromethyl)phenyl]-2H, 8H-pyrazolo[3,4-b]indole-5-carboxamide], the melting point was 181 to 185 °C.
Regarding `Cn1cc2c3cc(C(=O)O[C@@H]4O[C@H](C(=O)O)[C@@H](O)[C@H](O)[C@H]4O)ccc3n(-c3ccc(C(F)(F)F)cc3)c2n1` [Example 30, (2S,3S,4S,5R,6S)-3,4,5-trihydroxy-6-{2-methyl-8-[4-(trifluoromethyl)phenyl]-2H,8H-pyrazolo[3,4-b]indole-5-carbonyloxy}oxane-2-carboxylic acid], the melting point was in the range of 110 to 111 °C.
In turn, `C[C@@H](CO)NS(=O)(=O)c1ccc2c(c1)c1nnn(C)c1n2-c1ccc(C(F)(F)F)cc1` [Example 38, N-[(2S)-1-hydroxypropan-2-yl]-3-methyl-4-[4-(trifluoromethyl)phenyl]-3H,4H-[1,2,3]triazolo[4,5-b]indole-7-sulfonamide] displayed a melting point of 232 to 234 °C. For the same compound, the IC50 in the data set with YAP-TEAD interaction was 10 to 100 nM. Also, the IC50 with SW620 Yap KO cells (class symbols) was > 30 µM. In the data set on NCI-H226 cells (NCI-H226, 96 h), the half-inhibitory concentration (IC50) was > 10000 nM.
Regarding `Cn1cc2c3cc(C(=O)NC(CO)c4cscn4)ccc3n(-c3ccc(C(F)(F)F)cc3)c2n1` (stereo not shown) [Example C277, N-[2-hydroxy-1-(1,3-thiazol-4-yl)ethyl]-2-methyl-8-[4-(trifluoromethyl)phenyl]-2H,8H-pyrazolo[3,4-b]indole-5-carboxamide], the IC50 in the data set on YAP-TEAD interaction was 10 to 100 nM; in the data set on SW620 Yap KO cells (n.d. = value not detectable below threshold given in parentheses) it was > 30 µM; with NCI-H226 cells (NCI-H226, 96 h) it was 1 to 100 nM.
